Measurements: ChEMBL document CHEMBL1201862, “PubChem BioAssay data set” (2004)
Calls of active or inactive are those of the source. Non-standard residues stand in square brackets, D forms with d. Residues, ends and D or L forms follow the SMILES beside them. ξ: configuration not given here. ξLac(3-iPr) = CC(C)CC(O)C(=O)O; NMeV = CN[CH](C(=O)O)C(C)C; NMeA = CN[CH](C)C(=O)O; βAla = NCCC(=O)O

Legend:
Vero [1] = experiment: cells; type: functional, cell-based; details: Chlorocebus sabaeus
[2] = reduction of Shn3 3'UTR-driven luciferase in osteoblasts – cell-based, Clone20 osteoblasts, firefly luciferase, cherry-picked, dose response (AID 624132); type: functional;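 also: firefly luciferase luminescence from reporter carrying the Shn3 3'UTR in osteoblasts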
[3] = loss of viability in HepG2 cells – cell-based, CellTiter-Glo, cherry-picked, cytotoxicity control for Shn3 inhibitor project, dose response (AID 624134); type: functional
[4] = non-specific 3'UTR reporter inhibition in Clone20-Shn3RL – cell-based, Renilla luciferase, cherry-picked, counter-screen for Shn3 inhibitor project, dose response (AID 624133); type: functional
[5] = target: 26S proteasome non-ATPase regulatory subunit 14 (Homo sapiens, UniProt O00487); experiment: inhibition of proteasome subunit RPN11 – biochemical, fluorescence polarization, uHTS hits, confirmation (AID 602368); type: functional
[6] = target: 72 kDa type IV collagenase (Homo sapiens, UniProt P08253); experiment: Dose Response validation of uHTS RPN11 inhibitor hits using a MMP-2 Fluorescence assay.; type: functional
Prothrombin = Prothrombin (Bos taurus, UniProt P00735); experiment: thrombin protease inhibitors – biochemical, fluorescence polarization, uHTS hits, dose response (AID 602369); type: functional
INS1 = experiment: suppression of NO production in INS-1E cells – cell-based, Griess absorbance, dry powder, dose response (AID 488866); type: functional; details: Rattus norvegicus
[7] = target: Delta-type opioid receptor (Homo sapiens, UniProt P41143); experiment: Counterscreen for agonists of heterodimerization of the mu 1 (OPRM1) and delta 1 (OPRD1) opioid receptors: Luminescence-based cell-based high throughput dose response assay to identify agonists of OPRD1 homodimerization. [Related pubchem assays (depositor defined):AID504326, AID504355, AID504692, AID504904, AID504905]; type: functional
Mu-type opioid receptor = Mu-type opioid receptor (Homo sapiens, UniProt P35372); experiment: Counterscreen for agonists of heterodimerization of the mu 1 (OPRM1) and delta 1 (OPRD1) opioid receptors: Luminescence-based cell-based high throughput dose response assay to identify agonists of OPRM1 homodimerization.; type: functional;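 also: U2OS cells expressing OPRM1 and beta-arrestin as split beta-galactosidase partners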
[8] = target: 5-hydroxytryptamine receptor 5A (Homo sapiens, UniProt P47898); experiment: Counterscreen for agonists of OPRM1-OPRD1 heterodimerization: luminescence-based cell-based high throughput dose response assay to identify agonists of 5-hydroxytryptamine (serotonin) 5A receptor (HTR5A). [Related pubchem assays (depositor defined):AID504326, AID504355, AID504692, AID504904, AID504905]; type: functional
[9] = target: T1, DNA repair protein RAD52 homolog (Homo sapiens, UniProt P43351); type: functional, biochemical
T1 sequence (P43351 whole entry): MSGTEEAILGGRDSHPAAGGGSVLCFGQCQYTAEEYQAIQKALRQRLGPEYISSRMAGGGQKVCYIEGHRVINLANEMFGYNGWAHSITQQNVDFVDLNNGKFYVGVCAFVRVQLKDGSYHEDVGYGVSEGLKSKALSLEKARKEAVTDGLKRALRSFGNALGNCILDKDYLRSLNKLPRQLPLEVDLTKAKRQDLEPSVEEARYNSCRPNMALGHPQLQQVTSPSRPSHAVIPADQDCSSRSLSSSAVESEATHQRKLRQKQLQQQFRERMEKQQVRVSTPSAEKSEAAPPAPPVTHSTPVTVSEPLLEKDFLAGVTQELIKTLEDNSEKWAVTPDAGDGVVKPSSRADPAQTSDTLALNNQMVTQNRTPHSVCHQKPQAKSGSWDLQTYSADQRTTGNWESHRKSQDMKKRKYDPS

[10] = target: Induced myeloid leukemia cell differentiation protein Mcl-1 (Homo sapiens, UniProt Q07820); type: functional
Vero [11] = experiment: cells; type: functional; details: Chlorocebus sabaeus
Cytochrome P450 3A4 = Cytochrome P450 3A4 (Homo sapiens, UniProt P08684); details: Potency;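 also: confirmatory qHTS run detecting inhibitors and substrates of CYP3A4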
Escherichia coli [12] = experiment: microbe, parasite or virus in culture
[13] = target: T2, Mannose-6-phosphate isomerase (Homo sapiens, UniProt P34949); experiment: MPI inhibition at elevated mannose 6-phosphate – biochemical, fluorescence intensity, high mannose 6-phosphate, primary screen (AID 1220)
T2 sequence (P34949 whole entry): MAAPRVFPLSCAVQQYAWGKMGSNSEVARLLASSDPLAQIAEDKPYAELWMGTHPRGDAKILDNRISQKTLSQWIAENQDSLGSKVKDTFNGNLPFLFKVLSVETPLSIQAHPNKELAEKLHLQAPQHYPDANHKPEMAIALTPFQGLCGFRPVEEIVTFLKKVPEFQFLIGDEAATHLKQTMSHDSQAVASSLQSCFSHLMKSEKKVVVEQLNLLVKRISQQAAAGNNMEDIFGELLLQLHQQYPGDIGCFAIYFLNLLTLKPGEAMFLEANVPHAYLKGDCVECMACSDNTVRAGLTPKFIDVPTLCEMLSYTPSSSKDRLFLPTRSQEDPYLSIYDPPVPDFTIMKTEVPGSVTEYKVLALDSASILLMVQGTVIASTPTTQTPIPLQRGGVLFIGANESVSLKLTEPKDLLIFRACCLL

[14] = target: T3, High affinity choline transporter 1 (Homo sapiens, UniProt Q9GZV3); experiment: human choline transporter blockers, potency – cell-based, 5-point CRC, membrane potential dye, dose response (AID 504840); type: functional
T3 sequence (Q9GZV3 whole entry): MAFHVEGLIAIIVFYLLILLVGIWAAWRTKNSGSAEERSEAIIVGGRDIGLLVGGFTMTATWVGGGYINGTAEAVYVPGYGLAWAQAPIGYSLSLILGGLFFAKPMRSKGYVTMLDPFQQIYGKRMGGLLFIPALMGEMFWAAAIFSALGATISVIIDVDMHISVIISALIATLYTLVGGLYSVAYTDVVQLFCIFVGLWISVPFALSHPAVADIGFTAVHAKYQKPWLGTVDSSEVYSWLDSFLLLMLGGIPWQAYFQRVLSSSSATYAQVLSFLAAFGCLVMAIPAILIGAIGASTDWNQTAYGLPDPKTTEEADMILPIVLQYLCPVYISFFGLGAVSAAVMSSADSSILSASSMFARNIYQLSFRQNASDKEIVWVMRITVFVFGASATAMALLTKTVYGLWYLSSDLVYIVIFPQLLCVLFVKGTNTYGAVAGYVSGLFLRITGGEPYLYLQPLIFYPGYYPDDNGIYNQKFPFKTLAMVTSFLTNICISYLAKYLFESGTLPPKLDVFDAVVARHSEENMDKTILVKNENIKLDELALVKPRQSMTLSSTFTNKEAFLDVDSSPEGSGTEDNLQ

[15] = target: T4, Rac GTPase-activating protein 1 (Homo sapiens, UniProt Q9H0H5); experiment: blockers of MgcRacGAP-driven Rac1 GTP hydrolysis – biochemical, ADP Hunter fluorescence, primary and confirmatory, confirmation (AID 624330); type: functional
T4 sequence (Q9H0H5 whole entry): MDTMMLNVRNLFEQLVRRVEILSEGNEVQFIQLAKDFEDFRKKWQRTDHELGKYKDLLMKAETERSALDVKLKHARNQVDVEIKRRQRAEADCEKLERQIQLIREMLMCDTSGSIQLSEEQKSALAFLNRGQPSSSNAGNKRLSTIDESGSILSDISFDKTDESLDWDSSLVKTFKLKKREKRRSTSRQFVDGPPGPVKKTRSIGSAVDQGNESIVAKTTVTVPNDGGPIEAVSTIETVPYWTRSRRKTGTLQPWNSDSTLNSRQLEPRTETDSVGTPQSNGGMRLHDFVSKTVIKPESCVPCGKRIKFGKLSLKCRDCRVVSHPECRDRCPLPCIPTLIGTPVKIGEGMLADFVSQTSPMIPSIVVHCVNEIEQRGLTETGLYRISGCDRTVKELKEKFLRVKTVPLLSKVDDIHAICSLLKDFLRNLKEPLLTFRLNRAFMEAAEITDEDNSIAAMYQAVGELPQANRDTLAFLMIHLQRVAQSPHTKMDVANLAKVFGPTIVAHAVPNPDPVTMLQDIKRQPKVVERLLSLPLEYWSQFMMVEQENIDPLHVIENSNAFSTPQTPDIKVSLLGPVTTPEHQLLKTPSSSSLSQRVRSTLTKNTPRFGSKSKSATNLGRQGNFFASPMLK

Escherichia coli [16] = experiment: microbe, parasite or virus in culture; remark: listed apart in the source

Chain of 26S proteasome non-ATPase regulatory subunit 14 (O00487 whole entry): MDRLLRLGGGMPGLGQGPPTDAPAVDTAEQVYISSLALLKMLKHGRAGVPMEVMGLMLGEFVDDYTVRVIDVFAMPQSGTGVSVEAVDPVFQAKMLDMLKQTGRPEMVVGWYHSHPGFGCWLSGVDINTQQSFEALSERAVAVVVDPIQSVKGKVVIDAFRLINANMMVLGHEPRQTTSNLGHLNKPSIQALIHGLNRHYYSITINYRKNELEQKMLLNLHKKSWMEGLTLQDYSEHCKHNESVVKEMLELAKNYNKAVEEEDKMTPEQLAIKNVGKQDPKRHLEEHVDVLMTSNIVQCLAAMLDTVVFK
Chain of 72 kDa type IV collagenase (P08253 whole entry): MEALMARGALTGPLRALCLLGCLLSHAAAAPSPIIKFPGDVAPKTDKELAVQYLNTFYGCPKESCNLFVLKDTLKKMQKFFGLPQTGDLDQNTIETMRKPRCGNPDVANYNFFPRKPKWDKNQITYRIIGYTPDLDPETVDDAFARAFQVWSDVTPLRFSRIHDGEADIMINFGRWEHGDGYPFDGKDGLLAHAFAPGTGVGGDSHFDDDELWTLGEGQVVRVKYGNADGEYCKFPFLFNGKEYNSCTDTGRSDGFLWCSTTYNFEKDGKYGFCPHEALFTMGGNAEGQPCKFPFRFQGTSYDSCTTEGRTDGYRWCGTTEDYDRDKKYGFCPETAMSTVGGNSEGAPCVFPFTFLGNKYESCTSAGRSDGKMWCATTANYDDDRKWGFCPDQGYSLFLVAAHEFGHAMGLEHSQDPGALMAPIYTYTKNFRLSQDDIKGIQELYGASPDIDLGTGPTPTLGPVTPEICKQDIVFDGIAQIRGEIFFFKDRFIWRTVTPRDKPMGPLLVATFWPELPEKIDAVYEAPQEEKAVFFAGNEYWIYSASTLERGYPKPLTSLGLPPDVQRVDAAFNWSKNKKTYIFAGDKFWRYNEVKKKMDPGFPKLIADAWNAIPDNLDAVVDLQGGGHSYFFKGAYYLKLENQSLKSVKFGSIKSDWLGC
Chain of Cytochrome P450 3A4 (P08684 whole entry): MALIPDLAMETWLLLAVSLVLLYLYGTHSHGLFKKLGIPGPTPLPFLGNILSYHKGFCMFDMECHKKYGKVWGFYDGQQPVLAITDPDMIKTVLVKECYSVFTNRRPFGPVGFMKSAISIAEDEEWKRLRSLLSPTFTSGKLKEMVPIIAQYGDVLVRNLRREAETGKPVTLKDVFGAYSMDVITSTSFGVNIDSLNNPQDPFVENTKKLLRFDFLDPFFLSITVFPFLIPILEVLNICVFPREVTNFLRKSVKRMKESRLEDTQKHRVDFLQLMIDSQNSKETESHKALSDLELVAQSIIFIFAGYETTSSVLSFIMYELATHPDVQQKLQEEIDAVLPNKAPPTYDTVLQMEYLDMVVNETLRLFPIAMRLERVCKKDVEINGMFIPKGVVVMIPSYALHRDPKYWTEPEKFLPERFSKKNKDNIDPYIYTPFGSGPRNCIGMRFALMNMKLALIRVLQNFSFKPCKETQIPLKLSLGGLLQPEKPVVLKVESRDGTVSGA
Chain of Delta-type opioid receptor (P41143 whole entry): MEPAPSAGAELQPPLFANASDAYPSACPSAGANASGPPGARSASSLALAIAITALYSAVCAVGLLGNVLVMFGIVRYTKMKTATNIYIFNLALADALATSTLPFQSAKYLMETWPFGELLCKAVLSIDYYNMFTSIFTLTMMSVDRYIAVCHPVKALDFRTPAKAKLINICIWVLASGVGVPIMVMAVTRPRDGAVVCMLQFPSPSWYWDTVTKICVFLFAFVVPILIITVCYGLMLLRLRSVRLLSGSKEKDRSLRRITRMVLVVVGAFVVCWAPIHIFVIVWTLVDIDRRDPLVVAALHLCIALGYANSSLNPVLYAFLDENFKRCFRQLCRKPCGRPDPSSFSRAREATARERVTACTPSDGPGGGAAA
Chain of 5-hydroxytryptamine receptor 5A (P47898 whole entry): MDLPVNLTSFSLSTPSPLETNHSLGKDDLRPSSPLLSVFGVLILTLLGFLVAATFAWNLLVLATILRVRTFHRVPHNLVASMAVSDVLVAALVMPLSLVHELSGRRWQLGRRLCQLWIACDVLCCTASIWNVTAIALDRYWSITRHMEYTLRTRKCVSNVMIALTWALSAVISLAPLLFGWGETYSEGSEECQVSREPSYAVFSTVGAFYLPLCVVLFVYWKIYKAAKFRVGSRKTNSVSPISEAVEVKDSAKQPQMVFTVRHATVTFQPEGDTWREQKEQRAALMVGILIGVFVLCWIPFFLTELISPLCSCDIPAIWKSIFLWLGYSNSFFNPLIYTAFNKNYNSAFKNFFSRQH
Chain of Induced myeloid leukemia cell differentiation protein Mcl-1 (Q07820 whole entry): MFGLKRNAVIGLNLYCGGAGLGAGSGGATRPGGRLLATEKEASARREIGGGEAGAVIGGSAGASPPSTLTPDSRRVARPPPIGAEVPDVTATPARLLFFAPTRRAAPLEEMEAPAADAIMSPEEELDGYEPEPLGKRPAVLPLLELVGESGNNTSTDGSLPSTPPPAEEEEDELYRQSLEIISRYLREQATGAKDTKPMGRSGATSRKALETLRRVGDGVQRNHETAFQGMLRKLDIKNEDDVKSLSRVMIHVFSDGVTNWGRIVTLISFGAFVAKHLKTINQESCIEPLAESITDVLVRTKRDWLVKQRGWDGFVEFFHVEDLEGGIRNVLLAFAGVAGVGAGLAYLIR
Chain of Mu-type opioid receptor (P35372 whole entry): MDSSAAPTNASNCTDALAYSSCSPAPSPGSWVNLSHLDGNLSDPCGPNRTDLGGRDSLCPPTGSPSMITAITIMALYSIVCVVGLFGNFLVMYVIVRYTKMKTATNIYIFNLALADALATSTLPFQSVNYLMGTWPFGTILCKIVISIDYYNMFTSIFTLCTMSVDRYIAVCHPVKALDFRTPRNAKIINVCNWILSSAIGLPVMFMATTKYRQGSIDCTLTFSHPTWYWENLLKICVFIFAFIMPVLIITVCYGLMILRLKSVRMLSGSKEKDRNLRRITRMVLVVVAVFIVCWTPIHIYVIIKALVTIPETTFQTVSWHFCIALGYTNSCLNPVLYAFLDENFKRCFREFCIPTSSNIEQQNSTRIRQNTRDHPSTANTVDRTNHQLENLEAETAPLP

COc1ccccc1C1N(c2ccc(Cl)cc2)C(=O)C2CCCN21 (stereo not drawn)
IC50 (Vero [1]): > 25 µM (active)

CCN(CC)S(=O)(=O)c1cc(NC(=O)C2CCN(c3ncnc4sc(C)c(C)c34)CC2)ccc1Cl
AC50 [2]: 5.08 µM (active)
AC50 [3]: 7.1 µM (active)
AC50 [4]: 10.6 µM (active)

Cc1sc2nc(CSc3nnc(Cc4cccs4)n3C3CCCCC3)[nH]c(=O)c2c1C
IC50 [5]: 15.5 µM (active)
IC50 [6]: > 100 µM (inactive)
IC50 (Prothrombin): 21.5 µM (active)

C[C@@H]1CN([C@@H](C)CO)C(=O)c2cccc(NC(=O)Nc3cccc4ccccc34)c2O[C@H]1CN(C)S(=O)(=O)c1ccc(-c2ccccc2)cc1
AC50 (INS1): > 195 µM (inactive)

CC(=O)C1CCC2C3CC=C4CC(SC(=N)N)CCC4(C)C3CCC12C (stereo not drawn)
EC50 [7]: > 10.3 µM (inactive)
EC50 (Mu-type opioid receptor): > 92.4 µM (inactive)
EC50 [8]: > 92.4 µM (inactive)
AC50 [9]: 7.48 µM (active)

O=C(Nc1cccnc1)c1cccc(-c2cc3ccccc3oc2=O)c1
IC50 [5]: 9.88 µM (active)
IC50 [6]: > 100 µM (inactive)
IC50 (Prothrombin): 53.8 µM (active)

CCN=c1ccc(Br)cc(C(=O)/C=C/c2ccc(Cl)cc2Cl)c1O
IC50 [10]: 3.71 µM (active)
IC50 (Vero [1]): 11.6 µM (active)
CC50 (Vero [11]): 11.1 µM (active)

Cc1ccc(C(=O)COC(=O)c2cc(O)nc3ccccc23)cc1C
IC50 [5]: 22.3 µM (active)
IC50 [6]: > 100 µM (inactive)
IC50 (Prothrombin): > 100 µM (inactive)

CCC(C)C1NC(=O)C2CCCN2C(=O)C(CC(C)C)OC(=O)CCNC(=O)C(C)N(C)C(=O)C(C(C)C)N(C)C1=O (stereo not drawn) (cyclo([ξLac(3-iPr)]PI[NMeV][NMeA][βAla]); configuration not given here)
IC50 (Vero [1]): 8.21 µM (active)
CC50 (Vero [11]): > 25 µM (active)

O=C(/C=C/c1ccc(O)c(O)c1)OCCc1ccccc1 [CAFFEIC ACID PHENETHYL ESTER]
AC50 [2]: 0.877 µM (active)
AC50 [3]: > 70 µM (inactive)
AC50 [4]: 1.11 µM (active)
AC50 (Cytochrome P450 3A4): 31.6 µM (inconclusive)

O=C1CCCC2=C1CC(C(=O)OCc1ccccc1)C(=O)N2Cc1ccccc1 (stereo not drawn)
AC50 (Escherichia coli [12]): 13.8 µM (active)

COc1cccc(CNc2ccc(N3CCCCC3)cc2)c1OC
IC50 [13]: > 50 µM (not active)
IC50 [14]: 11.5 µM (active)
IC50 [15]: 5.96 µM (active)

COc1ccc(S(=O)(=O)N(C)C[C@@H]2Oc3c(NC(=O)Nc4cccc(C(F)(F)F)c4)cccc3C(=O)N([C@@H](C)CO)C[C@H]2C)cc1
AC50 (INS1): 134 µM (active)

Cc1ccc(-n2nnnc2-c2cnoc2-c2cccc(F)c2)cc1
AC50 (Escherichia coli [16]): 24.5 µM (active)
AC50 (Escherichia coli [12]): 126 µM (active)

Cc1ccc(-c2nnc(N3CC(C)OC(C)C3)c3ccccc23)cc1 (stereo not drawn)
IC50 [14]: 17.4 µM (active)

CCOc1cccc2sc(N(CCCN(C)C)C(=O)c3ccc(S(=O)(=O)N4CCCCCC4)cc3)nc12
AC50 (Escherichia coli [16]): 19.6 µM (active)
AC50 (Escherichia coli [12]): > 380 µM (inactive)

CCN=C(S)NCCN1CCOCC1
AC50 (Escherichia coli [16]): 24.7 µM (active)
